The text below walks through data of patent US9980943B2, “Methods of treating muscular dystrophy” (BOARD OF REGENTS OF THE NEVADA SYSTEM OF HIGHER EDUCATION, …, priority 2013, dated 2018).

This assay deals with α7 integrin (LacZ reporter in α7LacZ+/− myoblasts). Put plainly: qHTS of the LOPAC library and MLSMR (online screen, α7LacZ+/− myoblasts). The settings on record: Mus musculus, Myoblast; for activation at 0.307 µM: read-out: Activity at 0.307 uM [%] **; for activation at 1.53 µM: read-out: Activity at 1.530 uM [%] **; for activation at 7.66 µM: read-out: Activity at 7.660 uM [%] **; for activation at 38.3 µM: read-out: Activity at 38.30uM [%] **; for EC50: read-out: Fit LogAC50 (converted).

The mark [1] stands for this setting: 48 h, read-out: Fit Infinite Activity [%].

Like-named read-outs stand apart in the source and are kept apart here.

Description: A total of 250 α7LacZ^+/− myoblasts at passage 13 were dispensed using a multidrop (Thermo) into black low base tissue culture treated microclear aurora plates in 6 μl media containing DMEM without phenol, 5% FBS, 1× GluMax and 1× Penicillin/Streptomycin. […] Compounds were then dispensed using a Kalypsys pintool to deliver 23 nl/well compounds in DMSO (diluted into 6 μl resulting in a 1:260 dilution of compound). […] After incubation with compound, 5 μl of the media was aspirated using the Kalypsys washer/dispenser and 3 μl of the Mammalian Protein Extraction Reagent (MPER) lysis buffer (Thermo Fisher) was added. […] The plates were then incubated for 10 minutes at room temperature.
The assay was adapted for a high-throughput screen with the fully automated Kalypsys robotic system using 1536 well plates at NCGC.

For `c1ccc(CN2CCCC3(CCCN(Cc4nc(CC5CC5)no4)C3)C2)cc1` (centres unmarked) [Compound 200], under “48 h”, the activation at 0.307 µM is -40.9%, the activation at 1.53 µM was -35.8%, the activation at 7.66 µM is 1.57% and the activation at 38.3 µM came out at 46.2%. Moreover, under setting [1], the Emax turned out to be 56.6%. Moreover, the Emax (read-out: Max Response [%]) is 46.2%.

Take `Cc1ccccc1C(=O)Nc1nnc(SC(C)C)s1` [Compound 196]: the EC50 is 10 µM. In addition, where the note is “48 h”, the activation at 0.307 µM was determined as 0%, the activation at 1.53 µM is 0%, the activation at 7.66 µM was 20.6% and the activation at 38.3 µM turned out to be 65.1%. The Emax under setting [1] amounted to 66.6%. Moreover, for the setting “read-out: Max Response [%]”, the Emax is 65.1%.

With `CN(C)S(=O)(=O)c1ccc(C(=O)Nc2nc3ccccc3[nH]2)cc1` [Compound 116], the EC50 was 8.91 µM. Also, for the setting “48 h”, the activation at 0.307 µM is -9.1%, the activation at 1.53 µM is -3.94%, the activation at 7.66 µM came to 36.7% and the activation at 38.3 µM turned out to be 84.9%. Also, the Emax under setting [1] was found to be 94.8%. The Emax (read-out: Max Response [%]) was 84.9%.

For `CN(C)CCNc1ncnc2sc(-c3ccccc3)cc12` [Compound 163], the EC50 was 10 µM. Further, where the note is “48 h”, the activation at 0.307 µM is -0.804%, the activation at 1.53 µM is -0.389%, the activation at 7.66 µM came to 19.4% and the activation at 38.3 µM was found to be 78.1%. The Emax under setting [1] is 78.3%. For the setting “read-out: Max Response [%]”, the Emax was 78.1%.

For `COc1ccccc1C(=O)NCCOc1ccc(C(C)(C)C)cc1` [Compound 168], for the setting “48 h”, the activation at 1.53 µM was determined as 0%, the activation at 7.66 µM turned out to be 35.8% and the activation at 38.3 µM is 77.8%. For the same compound, the Emax under setting [1] stood at 82.9%. Under “read-out: Max Response [%]”, the Emax was 77.8%.

`Cc1ccc(CNc2ncnc(N)c2[N+](=O)[O-])cc1` [Compound 120]: the EC50 was 10 µM. Further, under “48 h”, the activation at 0.307 µM turned out to be 17.8%, the activation at 1.53 µM amounted to 33.8%, the activation at 7.66 µM came out at 63.4% and the activation at 38.3 µM amounted to 97.4%. For the same compound, the Emax under setting [1] turned out to be 127%. Also, the Emax (read-out: Max Response [%]) stood at 97.4%.

For `COc1ccc(-c2c[nH]nc2-c2ccc(OC)cc2)cc1` [Compound 106], for the setting “48 h”, the activation at 0.307 µM is -0.495%, the activation at 1.53 µM was determined as 9.02%, the activation at 7.66 µM was 40.4% and the activation at 38.3 µM came to 70.1%. The Emax under setting [1] worked out at 79.2%. For the same compound, the Emax (read-out: Max Response [%]) is 70.1%.

As for `Cc1ccc(-c2onc3ccc(C(=O)/C=C/N(C)C)cc23)cc1` [Compound 39], the EC50 is 3.55 µM. For the setting “48 h”, the activation at 0.307 µM is -7.76%, the activation at 1.53 µM is 5.51%, the activation at 7.66 µM was 52.9% and the activation at 38.3 µM was 69.1%. Besides, the Emax under setting [1] is 69.5%.

With `O=C(Nc1ccc(Cl)cc1N1CCOCC1)C1CCCCC1` [Compound 53], the EC50 was 7.08 µM. Besides, for the setting “48 h”, the activation at 0.307 µM came to 0%, the activation at 1.53 µM came to 28.1%, the activation at 7.66 µM amounted to 71.9% and the activation at 38.3 µM was 119%. Besides, the Emax under setting [1] amounted to 152%.

`CC(C(=O)Nc1ccc(C#N)cc1)N(C)CC(=O)Nc1cccc(F)c1` (centres unmarked) [Compound 186]: under “48 h”, the activation at 0.307 µM was -37.2%, the activation at 1.53 µM was -17.7%, the activation at 7.66 µM amounted to 15.1% and the activation at 38.3 µM came to 37.2%. Moreover, under setting [1], the Emax turned out to be 48%. Besides, the Emax (read-out: Max Response [%]) turned out to be 37.2%.

With `COCCN1C=C(C(=O)OC)C(c2ccccc2Cl)C(C(=O)OC)=C1` [Compound 123], where the note is “48 h”, the activation at 0.307 µM turned out to be 5.12%, the activation at 1.53 µM is 12.1%, the activation at 7.66 µM was determined as 45.1% and the activation at 38.3 µM stood at 85.5%. In addition, under setting [1], the Emax is 96.9%. Also, for the setting “read-out: Max Response [%]”, the Emax was 85.5%.

As to `COc1ccc(CCNC(=O)c2cc(-c3cc(C)ccc3O)n[nH]2)cc1OC` [Compound 217], the EC50 is 10 µM. Further, where the note is “48 h”, the activation at 0.307 µM came to 10.4%, the activation at 1.53 µM was 9.29%, the activation at 7.66 µM is 27.5% and the activation at 38.3 µM is 65.2%. For the same compound, the Emax under setting [1] was found to be 66.2%. Also, the Emax (read-out: Max Response [%]) amounted to 65.2%.

On to `Cc1ccc(OCC(=O)N2CCN(S(=O)(=O)c3ccc4c(c3)OCCO4)CC2)c(C)c1` [Compound 27], for which the EC50 is 2 µM. In addition, for the setting “48 h”, the activation at 0.307 µM was -26.2%, the activation at 1.53 µM worked out at 3.31%, the activation at 7.66 µM stood at 51.6% and the activation at 38.3 µM turned out to be 53.8%. The Emax under setting [1] came out at 55%.

Consider `CN(C#N)c1nccc(-c2cccs2)n1` [Compound 190], for which, under “48 h”, the activation at 0.307 µM was -30.5%, the activation at 1.53 µM is -25.3%, the activation at 7.66 µM came to 6.31% and the activation at 38.3 µM amounted to 79.6%. In addition, the Emax under setting [1] is 87.5%. Besides, the Emax (read-out: Max Response [%]) came to 79.6%.

As for `Cc1c(C(=O)N2CCCCC2)c(S(=O)(=O)Nc2cccc(Br)c2)c(C)n1C` [Compound 155], the EC50 is 10 µM. For the same compound, under “48 h”, the activation at 0.307 µM is -32.1%, the activation at 1.53 µM is -31.8%, the activation at 7.66 µM is -9.12% and the activation at 38.3 µM worked out at 60.5%. In addition, under setting [1], the Emax turned out to be 60.9%. For the same compound, the Emax (read-out: Max Response [%]) stood at 60.5%.

Take `O=C(CCc1ccccc1)c1nnc(-c2ccccc2)o1` [Compound 183]: the EC50 is 10 µM. Moreover, under “48 h”, the activation at 0.307 µM was determined as 0%, the activation at 1.53 µM stood at 2.03%, the activation at 7.66 µM stood at 24.4% and the activation at 38.3 µM worked out at 99.5%. Also, the Emax under setting [1] came to 99.7%. Further, under “read-out: Max Response [%]”, the Emax was found to be 99.5%.

Turning to `Cn1ccc(C(=O)Nc2cccnc2Cl)n1` [Compound 140], the EC50 was 10 µM. Where the note is “48 h”, the activation at 0.307 µM was -2.76%, the activation at 1.53 µM is -4.96%, the activation at 7.66 µM turned out to be 22.8% and the activation at 38.3 µM was 76%. For the same compound, the Emax under setting [1] turned out to be 77.9%. For the same compound, the Emax (read-out: Max Response [%]) amounted to 76%.

`COc1ccccc1C(=O)NCC(=O)/N=N/c1c(O)n(C(C)C)c2ccccc12` [Compound 139]: under “48 h”, the activation at 0.307 µM was 15.2%, the activation at 1.53 µM was found to be 14.6%, the activation at 7.66 µM turned out to be 25% and the activation at 38.3 µM stood at 81.7%. The Emax under setting [1] is 82%. Further, under “read-out: Max Response [%]”, the Emax was 81.7%.

With `CS(=O)(=O)Cc1cccc(C(=O)NN(c2ccccc2)c2ccccc2)c1` [Compound 102], the EC50 is 12.6 µM. Besides, under “48 h”, the activation at 0.307 µM amounted to 10.3%, the activation at 1.53 µM turned out to be 11.3%, the activation at 7.66 µM came to 24.3% and the activation at 38.3 µM was determined as 159%. Under setting [1], the Emax was 160%. The Emax (read-out: Max Response [%]) is 159%.

Regarding `CC1(C)Cc2c(cnn2-c2cccc(F)c2)C(NC(=O)CCc2cnccn2)C1` (centres unmarked) [Compound 154], for the setting “48 h”, the activation at 0.307 µM was -36.1%, the activation at 1.53 µM is -14.4%, the activation at 7.66 µM turned out to be 17.9% and the activation at 38.3 µM worked out at 38.9%. Further, under setting [1], the Emax worked out at 47.5%. The Emax (read-out: Max Response [%]) amounted to 38.9%.
